# Source: patent US8834841B2, “Imaging agents” (priority 2005, dated 2014)
# Assays:
# DU145 prostate carcinoma = assay: in vitro amino acid uptake, DU145 cells; type: cell-based, human
# Description: (§1) The inventive compounds have been evaluated in vitro for tumor binding specificity (i.e. uptake cells) using a variety of tumor cell lines available in the art, along with reference compounds such as Me-AIB and BCH. Detailed description of these assays can be found in Martarello et al. (2002) Journal of Medicinal Chemistry, 45:2250-2259 and McConathy et al. (2003) Nuclear Medicine and Biology, 30:477-490. These, so called “amino acid uptake studies” are typically carried out with radiolabeled compounds in at least five phenotypically different human tumor cell lines (e.g. A549 lung carcinoma, MB468 breast carcinoma, DU145 prostate carcinoma, SKOV3 ovarian carcinoma, and U87 glial blastoma). These tumor cell lines can be grown either in vitro or in vivo with severe combined immunodeficiency (SCID) mice as a host. The fore-mentioned tumor cell lines are available at the Winship Cancer Institute of Emory University.
# (§2) For the in vitro amino acid uptake studies, all cells can be grown to monolayer confluency in T-175 culture flasks [Corning, Corning, N.Y.] (approx. 1×10^8 cells/flask) in Dulbecco's Modified Eagle's Medium (DMEM) [Sigma, St. Louis, Mo.] in a humidified incubator (37° C., 5% CO2/95% air). Media are supplemented with 10% fetal calf serum [Hyclone, Logan, Utah], and antibiotics (10,000 U/ml penicillin and 10 mg/ml streptomycin) (Sigma, St. Louis, Mo.). For tissue culture passage, monolayer cells are detached by gentle trypsinization, resuspended in complete media, and split 1:10 into new T-flasks. […]
# (§3) In the in vitro studies the uptake rate of each amino acid compound is measured in each tumor line, as well as the dominant transport mechanisms of each tumor cell line. After trypsinization, cells are resuspended in serum-free media, then counted on a hemocytometer, with viability assessed through Trypan blue staining. […] The vials are placed in a Cobra-II gamma counter (Packard, Meriden, Conn.), with the activity per cell number determined. […] Saline washes are performed as described above, and the filtered cells radioactivity determined on the gamma counter. […]
# U87 glial blastoma = assay: in vitro amino acid uptake, U87 cells; type: cell-based, human
# Description: as §1, §2, §3
# A549 lung carcinoma = assay: in vitro amino acid uptake, A549 cells; type: cell-based, human
# Description: as §1, §2, §3
# [1] = tested on: A549 (lung), DU145 (prostate), SKOV3 (ovary), and MDA MB468 (breast) tumor-bearing SCID mice; assay: in vivo biodistribution studies, summary over tumor models; conditions: injected intravenously
# Experimental: For the in vitro amino acid uptake studies, all cells can be grown to monolayer confluency in T-175 culture flasks [Corning, Corning, N.Y.] (approx. 1×10^8 cells/flask) in Dulbecco's Modified Eagle's Medium (DMEM) [Sigma, St. Louis, Mo.] in a humidified incubator (37° C., 5% CO2/95% air). Media are supplemented with 10% fetal calf serum [Hyclone, Logan, Utah], and antibiotics (10,000 U/ml penicillin and 10 mg/ml streptomycin) (Sigma, St. Louis, Mo.). For tissue culture passage, monolayer cells are detached by gentle trypsinization, resuspended in complete media, and split 1:10 into new T-flasks. Cultures are passaged weekly, and fed fresh media every 2 to 3 days. To initiate tumor growth in SCID mice, 1×10^6 cells are injected s.c. bilaterally into the flanks (inguinal region) of the recipient animals using a 1 ml syringe with a 27 gauge needle. Ex vivo experiments can be performed with animals containing tumors weighing between 500 mg and 1 g, as estimated by caliper measurement (tumor weight=(π/6)*abc, where a, b and c are the tumor length, width and height, respectively). The compounds of the invention are further evaluated for their tumor specificity and selectivity in tumor-bearing animal models. One can evaluate and compare the transport, accumulation and tissue distribution of each compound in these in vivo animal studies. Tissue distribution of the compounds is measured in SCID mice (average weight, 20-25 g) bearing human tumors as follows. The candidate radioligands (20 uCi in 0.4 ml 0.9% NaCl) are injected into the tail vein of tumor-bearing mice. The animals are sacrificed (cervical dislocation) at 5, 30, 60 and 120 minutes post-injection. Tissues (blood, heart, liver, lungs, kidneys, bone, thyroid, muscle, brain and tumor) are excised, rinsed in saline, and blotted dry. The tissues are weighed, placed into 12×75 mm glass vials, the radioactivity determined with a gamma counter, and the percent dose/gram calculated. Total activities of blood and muscle are calculated by assuming that they account for 7% and 40% of the total body mass, respectively. As exemplified above, the amino acid compounds of the invention have advantageous physiological characteristics (i.e., tumor binding specificity and selectivity, in vivo stability etc).
# [2] = tested on: type “L” type large-neutral amino acid transport system; assay: in vitro uptake studies in human tumor cells, summary; type: cell-based; conditions: U87, DU145, A549, SKOV3, MB468 cells (Table 1)
# Description: The inventive compounds have been evaluated in vitro for tumor binding specificity (i.e. uptake cells) using a variety of tumor cell lines available in the art, along with reference compounds such as Me-AIB and BCH. Detailed description of these assays can be found in Martarello et al. (2002) Journal of Medicinal Chemistry, 45:2250-2259 and McConathy et al. (2003) Nuclear Medicine and Biology, 30:477-490. These, so called “amino acid uptake studies” are typically carried out with radiolabeled compounds in at least five phenotypically different human tumor cell lines (e.g. A549 lung carcinoma, MB468 breast carcinoma, DU145 prostate carcinoma, SKOV3 ovarian carcinoma, and U87 glial blastoma). These tumor cell lines can be grown either in vitro or in vivo with severe combined immunodeficiency (SCID) mice as a host. […]
# as §3
# [3] = 120 min p.i., range over tumor models
smiles,measurement,setting,value
"NC1(C(=O)O)CCC1[18F] [Anti-R,S 2-[^18F]FACBC, (R,S) anti-1-amino-2-[^18F]fluorocyclobutyl-1-carboxylic acid]",% Dose Uptake/0.5e6 Cells,"DU145 prostate carcinoma; DU145, No inhibitor",6.40 +/− 0.60 % Dose Uptake/0.5e6 Cells
same,% Dose Uptake/0.5e6 Cells,"DU145 prostate carcinoma; DU145, inhibitor BCH (10 mM)",1.78 +/− 0.20 % Dose Uptake/0.5e6 Cells
same,% Dose Uptake/0.5e6 Cells,"DU145 prostate carcinoma; DU145, inhibitor MeAlB (10 mM)",2.07 +/− 0.26 % Dose Uptake/0.5e6 Cells
same,% Dose Uptake/0.5e6 Cells,"U87 glial blastoma; U87, No inhibitor",8.28 +/− 0.45 % Dose Uptake/0.5e6 Cells
same,% Dose Uptake/0.5e6 Cells,"U87 glial blastoma; U87, inhibitor BCH (10 mM)",2.48 +/− 0.23 % Dose Uptake/0.5e6 Cells
same,% Dose Uptake/0.5e6 Cells,"U87 glial blastoma; U87, inhibitor MeAlB (10 mM)",5.41 +/− 0.64 % Dose Uptake/0.5e6 Cells
same,% Dose Uptake/0.5e6 Cells,"A549 lung carcinoma; A549, No inhibitor",8.89 +/− 0.36 % Dose Uptake/0.5e6 Cells
same,% Dose Uptake/0.5e6 Cells,"A549 lung carcinoma; A549, inhibitor BCH (10 mM)",3.99 +/− 0.39 % Dose Uptake/0.5e6 Cells
same,% Dose Uptake/0.5e6 Cells,"A549 lung carcinoma; A549, inhibitor MeAlB (10 mM)",6.93 +/− 0.20 % Dose Uptake/0.5e6 Cells
same,tumor uptake,[1]; [3],1.4-3.4 % dose/g
same,tumor-to brain ratio,[1]; [3],15-30
same,tumor-to kidney ratio,[1]; [3],1.5-2.7
same,tumor-to liver ratio,[1]; [3],2.4-4
same,tumor-to muscle ratio,[1]; [3],2-4
same,accumulation of radioactivity in tumors,[1],rapid and prolonged accumulation of radioactivity in tumors
same,uptake by the type “L” type large-neutral amino acid transport system,[2],high uptake
